Experimental data: ChEMBL document CHEMBL3885881, “DrugMatrix”

Organism: Rattus norvegicus
Experiment: DrugMatrix - Regimen: Daily Repeat
Format: toxicity, organism-based, Sprague-Dawley
Set-up: regimen Daily Repeat, gender Male, age 6-8 weeks
Details: in vivo, po, route oral GAVAGE, […]; for ABSOLUTE BASOPHIL / ABSOLUTE EOSINOPHIL / ABSOLUTE LYMPHOCYTE / ABSOLUTE MONOCYTE / ABSOLUTE SEGMENTED NEUTROPHIL / BASOPHIL / EOSINOPHIL / ERYTHROCYTE COUNT / HEMATOCRIT / HEMOGLOBIN / LEUKOCYTE COUNT / LYMPHOCYTE / MEAN CORPUSCULAR HEMOGLOBIN / MEAN CORPUSCULAR HEMOGLOBIN CONCENTRATION / MEAN CORPUSCULAR VOLUME / MONOCYTE / NEUTROPHIL / NUCLEATED RED BLOOD CELLS / PLATELET COUNT: tissue Blood; for ALANINE AMINOTRANSFERASE / ALBUMIN / ALKALINE PHOSPHATASE / ASPARTATE AMINOTRANSFERASE / BLOOD UREA NITROGEN / CARBON DIOXIDE / CHLORIDE / CHOLESTEROL / CREATINE PHOSPHOKINASE / CREATININE / GLUCOSE / LACTATE DEHYDROGENASE / LIPASE / PHOSPHORUS / POTASSIUM / SODIUM / TOTAL BILIRUBIN / TOTAL PROTEIN / URIC ACID: tissue Plasma
[1] = 0 mg/kg, 72 h, dose level Control, time 3 day
[2] = 0 mg/kg, 120 h, dose level Control, time 5 day
[3] = 4 mg/kg, 72 h, dose level Low, time 3 day

## CSc1ccc2c(c1)N(CCC1CCCCN1C)c1ccccc1S2 (centres undefined) [THIORIDAZINE]
[1]
  ABSOLUTE BASOPHIL: 0 CELLS/uL
  ABSOLUTE EOSINOPHIL: 179.67 CELLS/uL
  ABSOLUTE LYMPHOCYTE: 11440.17 CELLS/uL
  ABSOLUTE MONOCYTE: 128.83 CELLS/uL
  ABSOLUTE SEGMENTED NEUTROPHIL: 1051.33 CELLS/uL
  BASOPHIL: 0%
  EOSINOPHIL: 1.33%
  ERYTHROCYTE COUNT: 5.53 x10E6/uL
  HEMATOCRIT: 34.75%
  HEMOGLOBIN: 12.88 G/DL
  LEUKOCYTE COUNT: 12.8 x10E3/uL
  LYMPHOCYTE: 89.5%
  MEAN CORPUSCULAR HEMOGLOBIN: 23.38 pg
  MEAN CORPUSCULAR HEMOGLOBIN CONCENTRATION: 37.12 G/DL
  MEAN CORPUSCULAR VOLUME: 62.88 fL
  MONOCYTE: 1%
  NEUTROPHIL: 8.17%
  NUCLEATED RED BLOOD CELLS: 0 /100WBC
  PLATELET COUNT: 1292 x10E3/uL
  ALANINE AMINOTRANSFERASE: 58.67 u/L
  ALBUMIN: 4.25 G/DL
  ALKALINE PHOSPHATASE: 437.83 u/L
  ASPARTATE AMINOTRANSFERASE: 85.17 u/L
  BLOOD UREA NITROGEN: 14.17 mg/dL
  CARBON DIOXIDE: 28.67 mmol/L
  CHLORIDE: 102.17 MEQ/L
  CHOLESTEROL: 68.5 mg/dL
  CREATINE PHOSPHOKINASE: 271.83 u/L
  CREATININE: 0.2 mg/dL
  GLUCOSE: 156.67 mg/dL
  LACTATE DEHYDROGENASE: 112.33 u/L
  LIPASE: 9.33 u/L
  PHOSPHORUS: 11.1 mg/dL
  POTASSIUM: 6.46 MEQ/L
  SODIUM: 144.37 MEQ/L
  TOTAL BILIRUBIN: 0.23 mg/dL
  TOTAL PROTEIN: 5.8 G/DL
  URIC ACID: 1.55 mg/dL
[2]
  ABSOLUTE BASOPHIL: 0 CELLS/uL
  ABSOLUTE EOSINOPHIL: 87 CELLS/uL
  ABSOLUTE LYMPHOCYTE: 14743.5 CELLS/uL
  ABSOLUTE MONOCYTE: 187 CELLS/uL
  ABSOLUTE SEGMENTED NEUTROPHIL: 1499.17 CELLS/uL
  BASOPHIL: 0%
  EOSINOPHIL: 0.5%
  ERYTHROCYTE COUNT: 5.84 x10E6/uL
  HEMATOCRIT: 36.3%
  HEMOGLOBIN: 13.55 G/DL
  LEUKOCYTE COUNT: 16.52 x10E3/uL
  LYMPHOCYTE: 89.5%
  MEAN CORPUSCULAR HEMOGLOBIN: 23.25 pg
  MEAN CORPUSCULAR HEMOGLOBIN CONCENTRATION: 37.35 G/DL
  MEAN CORPUSCULAR VOLUME: 62.27 fL
  MONOCYTE: 1.17%
  NEUTROPHIL: 8.83%
  NUCLEATED RED BLOOD CELLS: 0.17 /100WBC
  PLATELET COUNT: 1233.5 x10E3/uL
  ALANINE AMINOTRANSFERASE: 62.5 u/L
  ALBUMIN: 4.17 G/DL
  ALKALINE PHOSPHATASE: 464.33 u/L
  ASPARTATE AMINOTRANSFERASE: 99.67 u/L
  BLOOD UREA NITROGEN: 14.33 mg/dL
  CARBON DIOXIDE: 26 mmol/L
  CHLORIDE: 102.33 MEQ/L
  CHOLESTEROL: 60.67 mg/dL
  CREATINE PHOSPHOKINASE: 402.5 u/L
  CREATININE: 0.22 mg/dL
  GLUCOSE: 173.5 mg/dL
  LACTATE DEHYDROGENASE: 518.17 u/L
  LIPASE: 10.83 u/L
  PHOSPHORUS: 11.4 mg/dL
  POTASSIUM: 6.13 MEQ/L
  SODIUM: 142.63 MEQ/L
  TOTAL BILIRUBIN: 0.17 mg/dL
  TOTAL PROTEIN: 6.1 G/DL
  URIC ACID: 1.97 mg/dL
[3]
  ABSOLUTE BASOPHIL: 0 CELLS/uL
  ABSOLUTE EOSINOPHIL: 0 CELLS/uL
  ABSOLUTE LYMPHOCYTE: 12903.67 CELLS/uL
  ABSOLUTE MONOCYTE: 46 CELLS/uL
  ABSOLUTE SEGMENTED NEUTROPHIL: 817 CELLS/uL
  BASOPHIL: 0%
  EOSINOPHIL: 0%
  ERYTHROCYTE COUNT: 5.52 x10E6/uL
  HEMATOCRIT: 35.4%
  HEMOGLOBIN: 13.13 G/DL
  LEUKOCYTE COUNT: 13.77 x10E3/uL
  LYMPHOCYTE: 93.67%
  MEAN CORPUSCULAR HEMOGLOBIN: 23.8 pg
  MEAN CORPUSCULAR HEMOGLOBIN CONCENTRATION: 37.1 G/DL
  MEAN CORPUSCULAR VOLUME: 64.17 fL
  MONOCYTE: 0.33%
  NEUTROPHIL: 6%
  NUCLEATED RED BLOOD CELLS: 0 /100WBC
  PLATELET COUNT: 1132.33 x10E3/uL
  ALANINE AMINOTRANSFERASE: 50 u/L
  ALBUMIN: 4.1 G/DL
  ALKALINE PHOSPHATASE: 495.33 u/L
  ASPARTATE AMINOTRANSFERASE: 79.67 u/L
  BLOOD UREA NITROGEN: 12 mg/dL
  CARBON DIOXIDE: 28.67 mmol/L
  CHLORIDE: 101.67 MEQ/L
  CHOLESTEROL: 70.67 mg/dL
  CREATINE PHOSPHOKINASE: 382.67 u/L
  CREATININE: 0.17 mg/dL
  GLUCOSE: 176.33 mg/dL
  LACTATE DEHYDROGENASE: 65.33 u/L
  LIPASE: 9.67 u/L
  PHOSPHORUS: 11.5 mg/dL
  POTASSIUM: 6.31 MEQ/L
  SODIUM: 142.93 MEQ/L
  TOTAL BILIRUBIN: 0.2 mg/dL
  TOTAL PROTEIN: 5.57 G/DL
  URIC ACID: 1.93 mg/dL
